{"source": "ChEMBL document CHEMBL1155003", "about": "“Halicyclamine A, a marine spongean alkaloid as a lead for anti-tuberculosis agent” (2008)", "key": {"[1]": {"system": "Mycobacterium tuberculosis", "experiment": "Antitubercular activity against Mycobacterium bovis BCG under aerobic condition after 7 days by MTT method", "format": "functional", "conditions": "variant bovis BCG, 168 h"}, "[2]": {"system": "Mycobacterium tuberculosis", "experiment": "Bactericidal activity against Mycobacterium bovis BCG assessed as decrease in CFU at 10 ug/ml after 4 weeks", "format": "functional, organism-based", "conditions": "variant bovis BCG"}, "[3]": {"system": "Mycobacterium tuberculosis", "experiment": "Antitubercular activity against Mycobacterium bovis BCG under hypoxic condition after 14 days by MTT method", "format": "functional", "conditions": "variant bovis BCG, 336 h"}}, "note": "Active and inactive are the calls of the source. The calls are words filed in the database; no cut-off is given here.", "data": [{"smiles": "C1=C2CCCC/C=C\\C=C\\CCN3CC[C@@H]4[C@H](CCCCCC/C=C\\C=C/CCN(C2)C[C@H]14)C3", "note": "[HALICYCLAMINE A]", "values": [{"measurement": "MIC", "setting": "[1]", "result": 1, "unit": "µg/mL"}, {"measurement": "Activity", "setting": "[2]", "result": "Active"}, {"measurement": "MIC", "setting": "[3]", "result": 1, "unit": "µg/mL"}]}, {"smiles": "NNC(=O)c1ccncc1", "note": "[ISONIAZID]", "values": [{"measurement": "MIC", "setting": "[1]", "result": 0.03, "unit": "µg/mL"}, {"measurement": "MIC", "setting": "[3]", "result": "> 100", "unit": "µg/mL"}]}]}
